Measured values: PubChem BioAssay (NCI)
Values joined by “and” are separate entries in the source; they are usually repeats but may differ in a detail not shown here. Equal values may be shown once.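 In this assay, cells in 96-well plates receive the compound at five concentrations for 48 hours. Endpoints are linearly interpolated between the surrounding concentrations. GI50 is the concentration that inhibits growth by half. At the TGI there is no net growth.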

What was measured:
Assay in all cases: growth of human tumour cells (NCI), 48 h
[1] = test system: A549 NSCLC
[2] = test system: CCRF-CEM leukemia
[3] = test system: HL-60(TB) leukemia
[4] = test system: MOLT-4 leukemia
[5] = test system: NCI-H226 lung
[6] = test system: NCI-H460 lung
[7] = test system: RPMI-8226 leukemia
[8] = test system: SF-295 CNS
[9] = test system: SNB-19 CNS
[10] = test system: MDA-MB-231 breast

Structure (SMILES)	TGI [1]	TGI [2]	TGI [3]	TGI [4]	TGI [5]	TGI [6]	TGI [7]	TGI [8]	TGI [9]	GI50 [1]	GI50 [2]	GI50 [3]	GI50 [4]	GI50 [5]	GI50 [6]	GI50 [7]	GI50 [8]	GI50 [9]	TGI [10]	GI50 [10]
CCCCNC(=S)Nn1c(-c2ccccc2)nc2ccccc2c1=O	> 100 µM	> 100 µM	> 100 µM	> 100 µM	> 100 µM	> 100 µM	> 100 µM	> 100 µM	–	–	–	–	–	–	–	–	–	–	–	–
C[N+](C)(C)CC(=O)N/N=C(/C=C/c1ccccc1)CC1OC(=O)c2ccccc21 (stereo not given)	> 100 µM	> 100 µM	> 100 µM	> 100 µM	> 100 µM	> 100 µM	> 100 µM	> 10 µM	> 100 µM	–	–	–	–	–	–	–	–	–	–	–
CC(=O)OC1COC(N2C(=O)C(=O)c3c(C)cc(Cl)nc32)C(OC(C)=O)C1OC(C)=O (stereo not given)	> 100 µM	> 100 µM	> 100 µM	> 100 µM	> 100 µM	> 100 µM	> 100 µM	> 100 µM	> 100 µM	–	–	–	–	–	–	–	–	–	–	–
CC(C)NC(=O)OCc1nnn2c1C(OC(=O)NC(C)C)CC2 (stereo not given)	> 100 µM	–	–	> 100 µM	> 100 µM	> 100 µM	> 100 µM	> 100 µM	> 100 µM	–	–	–	–	–	–	–	–	–	–	–
CCCCN(CCCC)C(=Nc1ccccc1)N(CCCC)CCCC	27.9 µM	24.4 µM	4.09 µM	13.1 µM	–	19.1 µM	4.42 µM	23.1 µM	32 µM	–	–	–	–	–	–	–	–	–	–	–
O=C(Nc1ccc(Cl)cc1)NS(=O)(=O)c1ccc2c(c1)CCC2	97.7 µM and 31.3 µg/mL	> 100 µM and 57.4 µg/mL	> 78.2 µM and 65.8 µg/mL	98.2 µM and 74.6 µg/mL	> 77.8 µM and 52.5 µg/mL	> 46.4 µM and 36.6 µg/mL	85.7 µM and 150 µg/mL	> 100 µM and 31.9 µg/mL	> 100 µM and 53.5 µg/mL	11.9 µg/mL	10.5 µg/mL	24.1 µg/mL	19.7 µg/mL	24.1 µg/mL	7.71 µg/mL	34.2 µg/mL	12 µg/mL	18.6 µg/mL	–	–
COC(=O)C1Cc2c([nH]c3ccccc23)[C@H](CC(C)C)N1 (stereo not given in full)	> 100 µM	> 100 µM	> 100 µM	> 100 µM	> 100 µM	–	> 100 µM	> 100 µM	> 100 µM	–	–	–	–	–	–	–	–	–	–	–
CC(C)c1ccc2c(c1)CCC1C(C)(C)[C@@H](O)CC[C@]21C (stereo not given in full)	> 100 µM	> 100 µM	37.6 µM	89.9 µM	38.5 µM	41.4 µM	52 µM	43.4 µM	> 100 µM	–	–	–	–	–	–	–	–	–	–	–
O=C(c1ccccc1)c1nnn(Cc2cccc(Cl)c2)c1C(=O)c1ccccc1	> 100 µM	> 100 µM	> 100 µM	> 100 µM	> 100 µM	> 100 µM	> 100 µM	> 100 µM	> 100 µM	–	–	–	–	–	–	–	–	–	–	–
COC(=O)C(=O)C(C#N)c1cccc2ccccc12 (stereo not given)	> 100 µM	> 100 µM	> 100 µM	> 100 µM	> 100 µM	–	> 100 µM	> 100 µM	> 100 µM	–	–	–	–	–	–	–	–	–	–	–
c1ccc([CH2][Sn]([CH2]c2ccccc2)([S]c2cccc3cccnc23)[S]c2cccc3cccnc23)cc1	–	0.686 µM	0.687 µM	–	–	1.01 µM	–	2.29 µM	2.07 µM	–	0.102 µM	0.273 µM	–	–	0.273 µM	–	0.394 µM	0.853 µM	–	–
CCCOC(=O)C1CCC(=O)N1C(=O)C(Cl)Cl (stereo not given)	> 100 µM	> 100 µM	> 100 µM	> 100 µM	> 100 µM	> 100 µM	> 100 µM	> 100 µM	> 100 µM	–	–	–	–	–	–	–	–	–	–	–
O=C(CC(O)(c1ccccc1)c1ccc(Cl)cc1)NC(=O)c1ccccc1O (stereo not given)	> 100 µM	43.2 µM	25 µM	46.7 µM	29.8 µM	26.7 µM	–	26.3 µM	> 100 µM	–	–	–	–	–	–	–	–	–	–	–
Nc1nc2nc3c(nc2c(=O)[nH]1)CN(c1ccc(C(=O)O)cc1)C3=O	> 100 µM	–	–	–	> 100 µM	> 100 µM	> 100 µM	> 100 µM	> 100 µM	–	–	–	–	–	–	–	–	–	> 100 µM	–
COC1OC(OC)C2C(c3c(C)cc(C)cc3C)=NOC12 (stereo not given)	> 100 µM	> 100 µM	> 100 µM	> 100 µM	> 100 µM	> 100 µM	> 100 µM	> 100 µM	> 100 µM	–	–	–	–	–	–	–	–	–	–	–
CCc1ccc(Cc2ccc(CC)c(NC(=O)C(=O)Cc3nc4ccccc4nc3C)c2CC)c(CC)c1NC(=O)C(=O)Cc1nc2ccccc2nc1C	> 100 µM	> 100 µM	> 100 µM	> 100 µM	–	> 100 µM	> 100 µM	–	> 100 µM	–	–	–	–	–	–	–	–	–	–	–
CCC12C=CCN3CC[C@]4(C(=C(C(=O)OC)[C@@H]1Nc1ncnc5c1ncn5C1OC(COC(C)=O)C(OC(C)=O)C1OC(C)=O)Nc1ccccc14)C32 (stereo not given in full)	13.2 µM	6.81 µM	7.39 µM	25.3 µM	5.22 µM	5.99 µM	18.9 µM	9.67 µM	12.1 µM	–	–	–	–	–	–	–	–	–	–	–
CC(=O)NNc1nc(C)c(C(/C=C/c2ccc(/C=C/C(=N\NC(=O)c3ccncc3)c3sc(NNC(C)=O)nc3C)cc2)=N/NC(=O)c2ccncc2)s1	> 100 µM	> 100 µM	> 100 µM	> 100 µM	> 100 µM	> 100 µM	> 100 µM	> 100 µM	> 100 µM	–	–	–	–	–	–	–	–	–	–	–
Cc1ccc(S(=O)(=O)NCCCN(CCCNS(=O)(=O)c2ccc(C)cc2)S(=O)(=O)c2ccc(C)cc2)cc1	> 100 µM	> 100 µM	> 100 µM	> 100 µM	> 100 µM	> 100 µM	> 100 µM	> 100 µM	> 100 µM	–	–	–	–	–	–	–	–	–	–	–
CCc1nc(N)nc(N)c1-c1ccc(Cl)cc1	> 100 µM	–	> 100 µM	> 100 µM	> 100 µM	> 100 µM	> 100 µM	37.9 µM and > 100 µM	> 100 µM	2.23 µM	–	6.67 µM	25.6 µM	47.9 µM	1.73 µM	56.6 µM	3.17 µM	7.75 µM	> 100 µM	34.2 µM
O=c1[nH]nc(-c2ccccc2)c(-c2ccccc2)c1-n1nc(-c2ccccc2)c2ccccc2c1=O	> 100 µM	> 100 µM	–	88.7 µM	> 100 µM	> 100 µM	> 100 µM	> 100 µM	–	–	–	–	–	–	–	–	–	–	–	–
